Test results as given in patent publication US7820829B2, “Bisbenzisoselenazolonyl derivatives having antineoplastic, anti-inflammatory and antithrombotic activities as well as their use” (Peking University, priority 2001, dated 2010).

Assays:
Lewis lung cancer = Lewis lung cancer transplanted in C57 mice; type: in vivo, C57 mouse; conditions: 2 mg/kg
Experimental: Lewis lung cancer tissue was resuscitated and subcultured by standard procedure. A piece of Lewis lung cancer was transplanted into the subcutaneous space on the back of each C 57 mouse for inoculation and growth. The Lewis lung cancer cells were dispersed in saline to form a cell suspension of 10^6/ml. 0.2-0.3 ml of the suspension were inoculated into each C57 mouse Mice were randomized into three groups, 10 for each group. In the treatment group, the mice were injected i.p. with […] in amount of 50 mg/kg; in reference group, DDp, 2 mg/kg; and in the negative control group (solvent group), 0.5% CMC-Na. The total volume for every group is the same. […] was administered by i.p. from the second day of transplantation for 3 days until the mice were sacrificed. The C57 mice were disinfected with 70% alcohol. The Lewis lung cancer tissue was removed, photographed and weighted. Then, the subcutaneous tumors were fixed by formaldehyde for further analysis.

HL-60 = test: E003 in combination with other antineoplastic agents on growth of cancer cell; type: cell-based, human; conditions: HL-60, 24 h
[1] = test system: xylene-induced ear oedema; test: Xylene-induced ear oedema in mice; type: in vivo; conditions: oral; for Inhibiting rate (%) (to aspirin): relative to aspirin 200 mg/kg; for Inhibiting rate (%) (to indomethacin): relative to indomethacin 22 mg/kg
Experimental: The anti-inflammatory effects of the test compounds E001, E002 and E 003 were evaluated in xylene-induced ear oedema in mice. The mice were randomized into a no-treatment control group, three reference groups and three treatment groups. There are 10 animals in each group. The test compounds, saline and reference drugs (indomethacin, Aspirin and Ebselen) were orally administered respectively. Ear oedema was induced by topical administration of xylene ([…] per ear) to the inner surface of the right ear after 1 hour of the administration. After 2 hours, the mice were killed. The change in the ear's weight with diameter of 8 mm was measured with a precision micrometer. The inhibiting rate of each compound to the xylene-induced ear oedema was calculated in accordance with the ear weight and the results were listed in Table 7.
The procedure described in Example 8 was repeated. And the results of the experiment are shown by the following table: […]

thrombosis = test: Electrically induced thrombosis in rat neck artery (OT value); type: in vivo; conditions: male SD rats, oral 30 mg/kg, 1 hour after administration; electricity 3 mA, 180 s
Experimental: Male SD rats (300-400 g) were randomized into a no-treatment control group (0.25% CMC), an ASA reference group (0.25% CMC, a few Tween-80) and three treatment groups (the compounds E001, E002 and E003). There are 5 animals in each group. The inventive compounds and reference drugs were orally administered respectively in amount of 30 mg/kg. The animals were anesthetized with urethane after 1 hour of the administration. The neck artery was separated surgically and OT value was measured (the stimulating conditions: electricity, 3 mA; time, 180 s).

mice = conditions: cited from earlier work

Structure (SMILES): N.N.[Cl][Pt][Cl] [DDP, Cisplatin]
- tumor volume, average (Lewis lung cancer): 473 mm^3
- Inhibition rate (HL-60; Cisplatin alone 0.5 μmol/L): 0.067 ± 0.014
- Inhibition rate (HL-60; Cisplatin alone 5 μmol/L): 0.12 ± 0.032

Structure (SMILES): COc1ccc2c(c1)c(CC(=O)O)c(C)n2C(=O)c1ccc(Cl)cc1 [Indomethacin]
- Ear oedema % ([1]; Example 8, mice, 22 mg/kg): 19.89%
- Ear oedema % ([1]; Example 11, mice, 22 mg/kg): 19.12%

Structure (SMILES): CC(=O)Oc1ccccc1C(=O)O [Aspirin]
- Ear oedema % ([1]; Example 8, mice, 200 mg/kg): 10.63%
- Ear oedema % ([1]; Example 11, mice, 200 mg/kg): 10.27%
- Average OT value (thrombosis): 588.2 s

Structure (SMILES): CC(=O)O[C@H]1C(=O)[C@@]2(C)[C@H]([C@H](OC(=O)c3ccccc3)[C@]3(O)C[C@H](OC(=O)[C@H](O)[C@@H](NC(=O)c4ccccc4)c4ccccc4)C(C)=C1C3(C)C)[C@]1(OC(C)=O)CO[C@@H]1C[C@@H]2O [Taxol]
- inhibition at 0.001 µg/mL (HL-60; Homo sapiens, Taxol alone 0.001 mg/L, read-out: Inhibition rate): 2 ± 1%
- inhibition at 0.01 µg/mL (HL-60; Homo sapiens, Taxol alone 0.01 mg/L, read-out: Inhibition rate): 27 ± 7.9%

Structure (SMILES): CC(=O)OC[C@H]1OC(OC(C)=O)[C@H](n2[se]c3ccccc3c2=O)[C@@H](OC(C)=O)[C@@H]1OC(C)=O (stereo partly drawn) [Compound E001, 2-(1,3,4,6-tetra-O-acetyl-2-deoxy-D-glucopyranosyl)-(1,2)-benzisoselenazol-3(2H)-one]
- Ear oedema % ([1]; Example 8, mice, 50 mg/kg): 4.81%
- Inhibiting rate (%) (to aspirin) ([1]; Example 8, mice, 50 mg/kg): 54.75 (to aspirin) %
- Inhibiting rate (%) (to indomethacin) ([1]; Example 8, mice, 50 mg/kg): 75.81 (to indomethacin) %
- Average OT value (thrombosis): 561.2 s

Structure (SMILES): COc1cccc2c1C(=O)c1c(O)c3c(c(O)c1C2=O)C[C@@](O)(C(=O)CO)C[C@@H]3O[C@H]1C[C@H](N)[C@H](O)[C@H](C)O1 [Adriamycin]
- inhibition at 0.1 µg/mL (HL-60; Homo sapiens, Adriamycin alone 0.1 mg/L, read-out: Inhibition rate): -7 ± 0.7%

Structure (SMILES): O=c1c2ccccc2[se]n1-c1ccccc1 [Ebselen, 2-phenyl-(1,2)-benzisoselenazol-3(2H)-on]
- LD50 (mice): > 6810 mg/kg
- Ear oedema % ([1]; Example 8, mice, 50 mg/kg): 6.22%
- Inhibiting rate (%) (to aspirin) ([1]; Example 8, mice, 50 mg/kg): 41.48 (to aspirin) %
- Inhibiting rate (%) (to indomethacin) ([1]; Example 8, mice, 50 mg/kg): 68.72 (to indomethacin) %
